In patent publication US20060004002A1 (priority 2004, published 2006):

What follows are molecules tested against T1, Recombinant human Src (Homo sapiens, UniProt P12931) (assay: Src tyrosine kinase activity assay with poly E4Y and 32P-ATP). Conditions: poly E4Y, 32P-ATP; NI = no inhibition; read-out: IC50 Value Src.
T1 construct: made in house; host or cells: baculovirus-insect cell system
Type: biochemical
Protocol: Recombinant human Src was expressed using the baculovirus-insect cell system and purified as published (Budde et al., 1993 and 2000). Recombinant Csk and the FGF receptor (FGFr) were expressed as […] fusion proteins using the pGEX expression vector and E. coli, and purified as described (Sun & Budde, 1995).
The tyrosine kinase activity of Src, Csk and FGFr was determined using poly E4Y and ^32P-ATP. Briefly, enzymes were assayed in a reaction mixture […] consisting of 0.15 M EPPS-NaOH (pH 8.0) with 6 mM MgCl2, 0.2 mM γ^32P-ATP (0.2-0.4 mCi/μmol), 10% glycerol, 0.1% Triton X-100, and poly E4Y. Poly E4Y is a synthetic peptide whose phosphorylation is measured in this assay by the addition of the radioactively labeled phosphate from the ATP (Budde et al., 1995). […] When ATP was varied (0, 50, 100 and 250 μM), poly E4Y was kept constant at 150 μg/ml.

T1 sequence (P12931 whole entry): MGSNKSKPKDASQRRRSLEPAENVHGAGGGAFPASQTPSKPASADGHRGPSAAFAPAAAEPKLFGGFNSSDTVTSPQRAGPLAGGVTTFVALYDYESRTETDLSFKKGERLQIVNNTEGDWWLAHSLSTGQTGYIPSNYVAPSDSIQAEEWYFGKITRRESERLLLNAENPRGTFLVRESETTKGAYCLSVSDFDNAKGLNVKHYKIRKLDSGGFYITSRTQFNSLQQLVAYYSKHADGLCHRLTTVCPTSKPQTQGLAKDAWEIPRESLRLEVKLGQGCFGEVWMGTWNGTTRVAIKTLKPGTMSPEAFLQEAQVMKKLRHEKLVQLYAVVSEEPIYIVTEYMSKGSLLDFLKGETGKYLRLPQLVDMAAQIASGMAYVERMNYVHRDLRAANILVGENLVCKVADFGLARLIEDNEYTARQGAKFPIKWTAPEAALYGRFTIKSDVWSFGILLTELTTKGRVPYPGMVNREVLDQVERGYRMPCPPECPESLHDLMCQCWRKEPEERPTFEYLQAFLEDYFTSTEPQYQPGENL

| Compound | IC50 |
| --- | --- |
| Cc1c(-c2cccc(C#N)c2)sc2c(NN=Cc3cccnc3)ncnc12 [Compound 29, 3-Pyridinecarboxaldehyde (6-(3-cyanophenyl)-7-methylthieno[3,2-d]pyrimidin-4-yl)hydrazone] | 27 nM |
| CCOc1ccccc1-c1sc2c(NN=Cc3cc(OC)c(O)c(OC)c3)ncnc2c1C#N [compound 94] | 0.34 nM |
| COc1ccc(C=NNc2ncnc3c(C)c(-c4ccccc4N)sc23)cc1O [Compound 13, 3-Hydroxy-4-methoxybenzaldehyde (6-(2-aminophenyl)-7-methylthieno[3,2-d]pyrimidin-4-yl)hydrazone] | 38 nM |
| CCOc1ccccc1-c1sc2c(NN=Cc3ccsc3)ncnc2c1O [Compound 93, 3-Thiophenecarboxaldehyde (6-(2-ethoxyphenyl)-7-hydroxythieno[3,2-d]pyrimidin-4-yl)hydrazone] | 2.8 nM |
| COc1ccc(C=NNc2ncnc3c(C)c(-c4cccc(C#N)c4)sc23)cc1O [Compound 27, 3-Hydroxy-4-methoxybenzaldehyde (6-(3-cyanophenyl)-7-methylthieno[3,2-d]pyrimidin-4-yl)hydrazone] | 58 nM |
| CCOc1ccccc1-c1sc2c(NN=Cc3ccoc3)ncnc2c1O [Compound 129, 3-Furancarboxaldehyde(6-(2-ethoxyphenyl)-7-hydroxythieno[3,2-d]pyrimidin-4-yl)hydrazone] | 3.4 nM |
| CCOc1cc(F)ccc1-c1sc2c(NN=Cc3cccs3)ncnc2c1C [Compound 106, 2-Thiophenecarboxaldehyde (6-(2-ethoxy-4-fluorophenyl)-7-methythieno[3,2-d]pyrimidin-4-yl)hydrazone] | 9.5 nM |
| CCOc1ccccc1-c1sc2c(NN=Cc3c[nH]c(=O)[nH]c3=O)ncnc2c1O [Compound 113, 2,4-Dioxo-1,2,3,4-tetrahydro-pyrimidine-5-carbaldehyde (6-(2-ethoxyphenyl)-7-hydroxythieno[3,2-d]pyrimidin-4-yl)hydrazone] | 28 nM |
| CCOc1ccccc1-c1sc2c(NN=Cc3cc(Br)c(O)c(OC)c3)ncnc2c1C#N [compound 87] | 0.31 nM |
| CCOc1ccccc1-c1sc2c(NN=Cc3cccnc3)ncnc2c1CO [Compound 70, 3-Pyridinecarboxaldehyde (6-(2-ethoxyphenyl)-7-hydroxymethylthieno[3,2-d]pyrimidin-4-yl)hydrazone] | 20 nM |
| Cc1c(-c2cccc(C(N)=O)c2)sc2c(NN=Cc3ccc(C(=O)O)cc3)ncnc12 [Compound 22, 4-Carboxybenzaldehyde (6-(3-aminocarbonylphenyl)-7-methylthieno[3,2-d]pyrimidin-4-yl)hydrazone] | 41 nM |
| CCOc1ccccc1-c1sc2c(NN=Cc3ccc(C)s3)ncnc2c1O [Compound 128, 5-Methyl-2-thiophenecarboxaldehyde (6-(2-ethoxyphenyl)-7-hydroxythieno[3,2-d]pyrimidin-4-yl)hydrazone] | 2.8 nM |
| CCOc1cc(F)ccc1-c1sc2c(NN=Cc3cc(OC)c(OCCN(CC)CC)c(OC)c3)ncnc2c1C [Compound 160, 4-(2-Diethylamino-ethoxy)-3,5-dimethoxy-benzaldehyde (6-(2-ethoxy-4-fluorophenyl)-7-methylthieno[3,2-d]pyrimidin-4-yl)hydrazone] | 0.3 nM |
| CCOc1ccccc1-c1sc2c(NN=Cc3nccn3C)ncnc2c1C#N [compound 138] | 18 nM |
| CCOc1cc(F)ccc1-c1sc2c(NN=Cc3cc(OC)c(OCCN(CC)CC)c(OC)c3)ncnc2c1O [Compound 159, 4-(2-Diethylamino-ethoxy)-3,5-dimethoxy-benzaldehyde (6-(2-ethoxy-4-fluorophenyl)-7-hydroxythieno[3,2-d]pyrimidin-4-yl)hydrazone] | 0.56 nM |
| COc1ccc(C=NNc2ncnc3c(C)c(-c4ccc(F)cc4)sc23)cc1O [Compound 36, 3-Hydroxy-4-methoxybenzaldehyde (6-(4-fluorophenyl)-7-methylthieno[3,2-d]pyrimidin-4-yl)hydrazone] | 57 nM |
| CCOc1ccccc1-c1sc2c(NN=Cc3ccc(OC)c(O)c3)ncnc2c1OC [Compound 40, 3-Hydroxy-4-methoxybenzaldehyde (6-(2-ethoxyphenyl)-7-methoxythieno[3,2-d]pyrimidin-4-yl)hydrazone] | 22 nM |
| Cc1c(-c2cccc(CN)c2)sc2c(NN=Cc3cccnc3)ncnc12 [Compound 6, 3-Pyridinecarboxaldehyde (6-(3-aminomethyl)phenyl-7-methylthieno[3,2-d]pyrimidin-4-yl)hydrazone] | 16 nM |
| Cc1c(-c2ccc(C(N)=O)cc2)sc2c(NN=Cc3cccnc3)ncnc12 [Compound 24, 3-Pyridinecarboxaldehyde (6-(4-aminocarbonylphenyl)-7-methylthieno[3,2-d]pyrimidin-4-yl)hydrazone] | 13 nM |
| CCOc1ccccc1-c1sc2c(NN=Cc3ccc(F)c(Cl)c3)ncnc2c1O [Compound 125, 3-Chloro-4-fluorobenzaldehyde (6-(2-ethoxyphenyl)-7-hydroxythieno[3,2-d]pyrimidin-4-yl)hydrazone] | 45 nM |

| Compound | IC50 |
| --- | --- |
| CCOc1ccccc1-c1sc2c(NN=Cc3ccc(OC)c(OC)c3)ncnc2c1C [Compound 53, 3,4-Dimethoxybenzaldehyde (6-(2-ethoxyphenyl)-7-methylthieno[3,2-d]pyrimidin-4-yl)hydrazone] | 4.6 nM |
| Cc1c(-c2cccc(C#N)c2)sc2c(NN=Cc3ccc(C(=O)O)cc3)ncnc12 [Compound 30, 4-Carboxybenzaldehyde (6-(3-cyanophenyl)-7-methylthieno[3,2-d]pyrimidin-4-yl)hydrazone] | 160 nM |
| Cc1c(-c2cccc(C(N)=O)c2)sc2c(NN=Cc3cccnc3)ncnc12 [Compound 21, 3-Pyridinecarboxaldehyde (6-(3-aminocarbonylphenyl)-7-methylthieno[3,2-d]pyrimidin-4-yl)hydrazone] | 91 nM |
| Cc1c(-c2ccc(C(N)=O)cc2)sc2c(NN=Cc3cccs3)ncnc12 [Compound 25, 2-Thiophenecarboxaldehyde (6-(4-aminocarbonylphenyl)-7-methylthieno[3,2-d]pyrimidin-4-yl)hydrazone] | 26 nM |
| CCOc1cc(F)ccc1-c1sc2c(NN=Cc3ccc(OC)c(O)c3)ncnc2c1O [Compound 61, 3-Hydroxy-4-methoxybenzaldehyde (6-(2-ethoxy-4-fluorophenyl)-7-hydroxythieno[3,2-d]pyrimidin-4-yl)hydrazone] | 6 nM |
| Cc1c(-c2ccc(O)cc2)sc2c(NN=Cc3ccc(C(=O)O)cc3)ncnc12 [Compound 76, 4-Carboxybenzaldehyde (6-(4-hydroxyphenyl)-7-methylthieno[3,2-d]pyrimidin-4-yl]hydrazone] | 41 nM |
| CCCOc1ccccc1-c1sc2c(NN=Cc3ccc(OC)c(O)c3)ncnc2c1C [Compound 83, 3-Hydroxy-4-methoxybenzaldehyde (7-methyl-6-(2-propoxyphenyl)thieno[3,2-d]pyrimidin-4-yl)hydrazone] | 29 nM |
| CCOc1ccccc1-c1sc2c(NN=Cc3cc(OC)c(OC)c(OC)c3)ncnc2c1C [Compound 63, 3,4,5-Trimethoxybenzaldehyde (6-(2-ethoxyphenyl)-7-methylthieno[3,2-d]pyrimidin-4-yl)hydrazone] | 1.3 nM |
| CCOc1ccccc1-c1sc2c(NN=Cc3ccc(NC(C)=O)cc3)ncnc2c1O [Compound 132, 4-Acetamidobenzaldehyde (6-(2-ethoxyphenyl)-7-hydroxythieno[3,2-d]pyrimidin-4-yl)hydrazone] | 2.4 nM |
| COc1ccc(C=NNc2ncnc3c(C)c(CNc4ccccc4)sc23)cc1O [Compound 18] | 550 nM |
| CCOc1ccccc1-c1sc2c(NN=Cc3ccc(C(=O)OC)cc3)ncnc2c1C#N [compound 118] | 22 nM |
| CCOc1ccccc1-c1sc2c(NN=Cc3ccc(C)o3)ncnc2c1C#N [compound 134] | 2.6 nM |
| CCOc1ccccc1-c1sc2c(NN=Cc3ccc(C(=O)OC)cc3)ncnc2c1O [Compound 120, Methyl 4-formyl benzoate (6-(2-ethoxyphenyl)-7-hydroxythieno[3,2-d]pyrimidin-4-yl)hydrazone] | 5.9 nM |
| COc1ccc(C=NNc2ncnc3c(C)c(-c4ccccc4CN)sc23)cc1O [Compound 7, 3-Hydroxy-4-methoxybenzaldehyde (6-(2-aminomethyl)phenyl-7-methylthieno[3,2-d]pyrimidin-4-yl)hydrazone] | 120 nM |
| CCOc1ccccc1-c1sc2c(NN=Cc3ccc(OC)c(O)c3)ncnc2c1COCC(O)CO (racemic) [Compound 56, 3-Hydroxy-4-methoxybenzaldehyde(7-((±)-4,5-dihydroxy-2-oxopentyl) (6-(2-ethoxyphenyl)thieno[3,2-d]pyrimidin-4-yl)hydrazone] | 120 nM |
| COc1ccc(C=NNc2ncnc3c(C)c(-c4cccc(CN5CCOCC5)c4)sc23)cc1O [Compound 17, 3-Hydroxy-4-methoxybenzaldehyde (7-methyl-6-(3-(morpholin-4-yl)methyl)phenylthieno[3,2-d]pyrimidin-4-yl)hydrazone] | 26 nM |
| CCOc1ccccc1-c1sc2c(NN=Cc3cccc(F)c3)ncnc2c1C#N [Compound 139, 3-Fluorobenzaldehyde (7-cyano-6-(2-ethoxyphenyl)thieno[3,2-d]pyrimidin-4-yl)hydrazone] | 4.7 nM |
| CCOc1ccccc1-c1sc2c(NN=Cc3cc(O)c(OC)c(OC)c3)ncnc2c1C [Compound 64, 3,4-Dimethoxy-5-hydroxybenzaldehyde (6-(2-ethoxyphenyl)-7-methylthieno[3,2-d]pyrimidin-4-yl)hydrazone] | 1.2 nM |
| CCOc1ccccc1-c1sc2c(NN=Cc3ccc(O)c(OC)c3)ncnc2c1C [Compound 55] | 3.3 nM |
